By Ki is commonly meant the dissociation constant of the complex between target and ligand, obtained from inhibition or displacement.

SMILES strings stand for the structures.

The values below come from patent US12391737B2, “Soluble NPY2 receptor agonists” (Boehringer Ingelheim International GmbH, priority 2020, dated 2025).

For series [1], the target named is T1, Human Neuropeptide Y2 Receptor (Homo sapiens, UniProt P49146).
T1 construct: purchased CHEMICON HTS066M
T1 sequence (P49146 1-381): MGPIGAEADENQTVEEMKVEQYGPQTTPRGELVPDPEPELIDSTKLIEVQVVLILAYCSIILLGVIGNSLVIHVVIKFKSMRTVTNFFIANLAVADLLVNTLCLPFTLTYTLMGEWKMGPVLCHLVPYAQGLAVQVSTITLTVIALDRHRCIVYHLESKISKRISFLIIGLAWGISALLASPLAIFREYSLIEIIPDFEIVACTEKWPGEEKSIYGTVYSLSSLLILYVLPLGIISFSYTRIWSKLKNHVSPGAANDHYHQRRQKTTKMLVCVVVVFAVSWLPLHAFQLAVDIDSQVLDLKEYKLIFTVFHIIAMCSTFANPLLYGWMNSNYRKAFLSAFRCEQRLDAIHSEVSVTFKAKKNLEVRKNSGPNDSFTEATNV
Description: Radioligand binding competition assay (RLB). Particulars: Table 3, 125I-PYY(1-36) competition; read-out: Ki. The procedure, abridged: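 Competition binding used membranes expressing the receptor (0.5 μg protein/well) in 50 mM HEPES, 5 mM MgCl2, 1 mM CaCl2, pH 7.4 with 0.2% ovalbumin, incubated 2 h at room temperature with shaking. Bound radioligand was collected by filtration onto PEI-soaked GF/C filters and counted; IC50 from nonlinear sigmoidal fits.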

Series [2] in a line: Solubility determination. The following applies: for Sol6: pH 6; for Sol7: pH 7. The procedure, abridged:
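First, TFA-salt peptide was added to 0.1 M sodium diphosphate (pH 6.4 or 7.0) to 10 mg/ml and shaken 2 h at room temperature. Next, insoluble material was filtered off. Finally, filtrate and control, each 1 mg/ml in 50% acetonitrile, were compared by reversed-phase chromatography.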

Regarding `CC(C)CC(=O)N[C@@H](C)C(=O)N1CCC[C@H]1C(=O)N[C@@H](CCC(=O)O)C(=O)N[C@@H](CCCCNC(=O)CCCCCNC(=O)CC[C@H](NC(=O)CCCCCCCCCCCCCCCCC(=O)O)C(=O)O)C(=O)N1CCC[C@H]1C(=O)N[C@@H](CCC(=O)O)C(=O)N[C@@H](CCC(=O)O)C(=O)N[C@@H](CC(=O)O)C(=O)N[C@@H](CCC(N)=O)C(=O)N[C@H](C(=O)N1CCC[C@H]1C(=O)N[C@@H](CCC(=O)O)C(=O)N[C@@H](CCC(=O)O)C(=O)N[C@@H](CC(C)C)C(=O)N[C@@H](CCC(N)=O)C(=O)N[C@@H](CCCNC(=N)N)C(=O)N[C@@H](Cc1ccc(O)cc1)C(=O)N[C@@H](Cc1ccc(O)cc1)C(=O)N[C@H](C(=O)N[C@@H](CO)C(=O)N[C@@H](CC(C)C)C(=O)N[C@@H](CCCNC(=N)N)C(=O)N[C@@H](Cc1c[nH]cn1)C(=O)N[C@@H](Cc1ccc(O)cc1)C(=O)N[C@@H](Cc1ccc(O)cc1)C(=O)N[C@@H](CC(N)=O)C(=O)N[C@@H](Cc1c[nH]c2ccccc12)C(=O)N[C@@H](CC(C)C)C(=O)N[C@H](C(=O)N[C@@H](CCCNC(=N)N)C(=O)N[C@@H](CCC(N)=O)C(=O)N[C@@H](CCCNC(=N)N)C(=O)N[C@@H](Cc1ccc(O)cc1)C(N)=O)[C@@H](C)O)C(C)C)[C@@H](C)O` [Compound 144, N{alpha-4}-(3-methylbutanoyl)-N{epsilon-7}-(6-[(4S)-4-carboxy-4-(17-carboxyheptadecanamido)butanamido]hexanoyl)-[4A,7K,9E,12Q,13T,18Q,22V,28Y,30W,31L]-hPYY(4-36)], in series [1], the inhibitory constant (Ki) turned out to be 9.76 nM. Further, in series [2], the “Sol6” value is 9.7 mg/mL and the “Sol7” value is 9.6 mg/mL.

In the case of `CC(C)CC(=O)N[C@@H](C)C(=O)N1CCC[C@H]1C(=O)N[C@@H](CCC(=O)O)C(=O)N[C@@H](CCCCNC(=O)CCCCCNC(=O)CC[C@H](NC(=O)CCCCCCCCCCCCCCCCC(=O)O)C(=O)O)C(=O)N1CCC[C@H]1C(=O)N[C@@H](CCC(=O)O)C(=O)N[C@@H](CCC(=O)O)C(=O)N[C@@H](CC(=O)O)C(=O)N[C@@H](C)C(=O)N[C@H](C(=O)N1CCC[C@H]1C(=O)N[C@@H](CCC(=O)O)C(=O)N[C@@H](CCC(=O)O)C(=O)N[C@@H](CC(C)C)C(=O)N[C@@H](CCC(N)=O)C(=O)N[C@@H](CCCNC(=N)N)C(=O)N[C@@H](Cc1ccc(O)cc1)C(=O)N[C@@H](Cc1ccc(O)cc1)C(=O)N[C@H](C(=O)N[C@H](C(=O)N[C@@H](CC(C)C)C(=O)N[C@@H](CCCNC(=N)N)C(=O)N[C@@H](Cc1c[nH]cn1)C(=O)N[C@@H](Cc1ccc(O)cc1)C(=O)N[C@@H](Cc1ccc(O)cc1)C(=O)N[C@@H](CC(N)=O)C(=O)N[C@@H](Cc1c[nH]c2ccccc12)C(=O)N[C@@H](CC(C)C)C(=O)N[C@H](C(=O)N[C@@H](CCCNC(=N)N)C(=O)N[C@@H](CCC(N)=O)C(=O)N[C@@H](CCCNC(=N)N)C(=O)N[C@@H](Cc1ccc(O)cc1)C(N)=O)[C@@H](C)O)[C@@H](C)O)C(C)C)[C@@H](C)O` [Compound 148, N{alpha-4}-(3-methylbutanoyl)-N{epsilon-7}-(6-[(4S)-4-carboxy-4-(17-carboxyheptadecanamido)butanamido]hexanoyl)-[4A,7K,9E,13T,18Q,22V,23T,28Y,30W,31L]-hPYY(4-36)], the inhibition constant Ki in series [1] stood at 2.85 nM. Besides, in series [2], the “Sol6” value turned out to be 9.7 mg/mL and the “Sol7” value is 10.0 mg/mL.

On to `CC(C)CC(=O)N[C@@H](C)C(=O)N1CCC[C@H]1C(=O)N[C@@H](C)C(=O)N[C@@H](CCCCNC(=O)CCCCCNC(=O)CC[C@H](NC(=O)CCCCCCCCCCCCCCCCC(=O)O)C(=O)O)C(=O)N1CCC[C@H]1C(=O)N[C@@H](CCC(=O)O)C(=O)N[C@@H](CCC(=O)O)C(=O)N[C@@H](CC(=O)O)C(=O)N[C@@H](C)C(=O)N[C@@H](CO)C(=O)N1CCC[C@H]1C(=O)N[C@@H](CCC(=O)O)C(=O)N[C@@H](CCC(=O)O)C(=O)N[C@@H](CO)C(=O)N[C@@H](CCC(N)=O)C(=O)N[C@@H](CCCNC(=N)N)C(=O)N[C@@H](Cc1ccc(O)cc1)C(=O)N[C@@H](Cc1ccc(O)cc1)C(=O)N[C@H](C(=O)N[C@@H](CO)C(=O)N[C@@H](CC(C)C)C(=O)N[C@@H](CCCNC(=N)N)C(=O)N[C@@H](Cc1c[nH]cn1)C(=O)N[C@@H](Cc1ccc(O)cc1)C(=O)N[C@@H](Cc1ccc(O)cc1)C(=O)N[C@@H](CC(N)=O)C(=O)N[C@@H](Cc1c[nH]c2ccccc12)C(=O)N[C@@H](CC(C)C)C(=O)N[C@H](C(=O)N[C@@H](CCCNC(=N)N)C(=O)N[C@@H](CCC(N)=O)C(=O)N[C@@H](CCCNC(=N)N)C(=O)N[C@@H](Cc1ccc(O)cc1)C(N)=O)[C@@H](C)O)C(C)C` [Compound 149, N{alpha-4}-(3-methylbutanoyl)-N{epsilon-7}-(6-[(4S)-4-carboxy-4-(17-carboxyheptadecanamido)butanamido]hexanoyl)-[4A,6A,7K,9E,17S,18Q,22V,28Y,30W,31L]-hPYY(4-36)], for which the Ki in series [1] was found to be 3.97 nM. Also, in series [2], the “Sol6” value was found to be 8.7 mg/mL and the “Sol7” value was 10.0 mg/mL.

As for `CC(C)CC(=O)N[C@@H](C)C(=O)N1CCC[C@H]1C(=O)N[C@@H](CCC(=O)O)C(=O)N[C@@H](CCCCNC(=O)CCCCCNC(=O)CC[C@H](NC(=O)CCCCCCCCCCCCCCCCC(=O)O)C(=O)O)C(=O)N1CCC[C@H]1C(=O)N[C@@H](CCC(=O)O)C(=O)N[C@@H](CCC(=O)O)C(=O)N[C@@H](CC(=O)O)C(=O)N[C@@H](CO)C(=O)N[C@@H](CO)C(=O)N1CCC[C@H]1C(=O)N[C@@H](CCC(=O)O)C(=O)N[C@@H](CCC(=O)O)C(=O)N[C@@H](CC(C)C)C(=O)N[C@@H](CCC(N)=O)C(=O)N[C@@H](CCCNC(=N)N)C(=O)N[C@@H](Cc1ccc(O)cc1)C(=O)N[C@@H](Cc1ccc(O)cc1)C(=O)N[C@H](C(=O)N[C@@H](C)C(=O)N[C@@H](CC(C)C)C(=O)N[C@@H](CCCNC(=N)N)C(=O)N[C@@H](Cc1c[nH]cn1)C(=O)N[C@@H](Cc1ccc(O)cc1)C(=O)N[C@@H](Cc1ccc(O)cc1)C(=O)N[C@@H](CC(N)=O)C(=O)N[C@@H](Cc1c[nH]c2ccccc12)C(=O)N[C@@H](CC(C)C)C(=O)N[C@H](C(=O)N[C@@H](CCCNC(=N)N)C(=O)N[C@@H](CCC(N)=O)C(=O)N[C@@H](CCCNC(=N)N)C(=O)N[C@@H](Cc1ccc(O)cc1)C(N)=O)[C@@H](C)O)C(C)C` [Compound 151, N{alpha-4}-(3-methylbutanoyl)-N{epsilon-7}-(6-[(4S)-4-carboxy-4-(17-carboxyheptadecanamido)butanamido]hexanoyl)-[4A,7K,9E,12S,18Q,22V,23A,28Y,30W,31L]-hPYY(4-36)], the Ki in series [1] was determined as 1.68 nM. In series [2], the “Sol6” value was 8.2 mg/mL and the “Sol7” value worked out at 9.7 mg/mL.

On to `CC(C)CC(=O)N[C@@H](C)C(=O)N1CCC[C@H]1C(=O)N[C@@H](CCC(=O)O)C(=O)N[C@@H](CCCCNC(=O)CCCCCNC(=O)CC[C@H](NC(=O)CCCCCCCCCCCCCCCCC(=O)O)C(=O)O)C(=O)N1CCC[C@H]1C(=O)N[C@@H](CCC(=O)O)C(=O)N[C@@H](CCC(=O)O)C(=O)N[C@@H](CC(=O)O)C(=O)N[C@@H](C)C(=O)N[C@H](C(=O)N1CCC[C@H]1C(=O)N[C@@H](CCC(=O)O)C(=O)N[C@@H](CCC(=O)O)C(=O)N[C@H](C(=O)N[C@@H](CCC(N)=O)C(=O)N[C@@H](CCCNC(=N)N)C(=O)N[C@@H](Cc1ccc(O)cc1)C(=O)N[C@@H](Cc1ccc(O)cc1)C(=O)N[C@H](C(=O)N[C@@H](CO)C(=O)N[C@@H](CC(C)C)C(=O)N[C@@H](CCCNC(=N)N)C(=O)N[C@@H](Cc1c[nH]cn1)C(=O)N[C@@H](Cc1ccc(O)cc1)C(=O)N[C@@H](Cc1ccc(O)cc1)C(=O)N[C@@H](CC(N)=O)C(=O)N[C@@H](Cc1c[nH]c2ccccc12)C(=O)N[C@@H](CC(C)C)C(=O)N[C@H](C(=O)N[C@@H](CCCNC(=N)N)C(=O)N[C@@H](CCC(N)=O)C(=O)N[C@@H](CCCNC(=N)N)C(=O)N[C@@H](Cc1ccc(O)cc1)C(N)=O)[C@@H](C)O)C(C)C)[C@@H](C)O)[C@@H](C)O` [Compound 152, N{alpha-4}-(3-methylbutanoyl)-N{epsilon-7}-(6-[(4S)-4-carboxy-4-(17-carboxyheptadecanamido)butanamido]hexanoyl)-[4A,7K,9E,13T,17T,18Q,22V,28Y,30W,31L]-hPYY(4-36)], for which, in series [1], the Ki was determined as 1.32 nM. In series [2], the “Sol6” value was found to be 8.8 mg/mL and the “Sol7” value came to 8.8 mg/mL.
